Results published in patent publication US20100184852A1, “ORGANIC COMPOUNDS FOR TREATMENT OF DISORDERS CONNECTED TO IMPAIRED NEUROTRANSMISSION” (priority 2006, published 2010).

Assays:
mice [1] = assay: Porsolt's swim test (behavioural despair test); type: in vivo, mouse; details: for Duration of immobility [seconds] ± Standard Error of Mean: last 4 of 6 minutes
Method: The “Behavioural Despair Test” or “Porsolt's Forced Swim Test” is a validated animal model for depression (see T, Nagatsu 2004 Neuro Toxicology, 25:11-20, and Porsolt et al. 1977, Arch. Int. Pharmacodyn., 229: 327-336). It responds to enhancement of the trans-mission of several neurotransmitters including serotonine, dopamine and noradrenaline.
The test, which detects antidepressant activity, was carried out as described by Porsolt et al supra. Mice which are forced to swim in a situation from which they cannot escape rapidly become immobile. Antidepressants decrease the duration of immobility.
Mice were individually placed in a cylinder (Height=24 cm, Diameter=13 cm) containing 10 cm water (22° C.) from which they could not escape. The mice were placed in the water for 6 minutes and the duration of immobility during the last 4 minutes was measured.
10 mice were studied per each of the four groups. The test was performed blind, i.e. the person carrying out the experiment was different from the person injecting the mice and didn't thus know to which of the four groups each mouse belonged.
3-n-butylphthalide (98.5% purity) was evaluated at 3 doses each: at 10, 30 and 80 mg/kg body weight, administered intraperitoneally 30 minutes before the test, and compared with a control group. The thus administered 3-n-butylphthalide was dissolved in a saline solution containing 3 weight-% DMSO and 3 weight-% Tween® 80 (so called “vehicle”), To the control group the vehicle consisting of the saline solution containing 3 weight-% DMSO and 3 weight-% Tween® 80 was administered intraperitoneally.

mice [2] = assay: Primary observation (Irwin) test in the mouse; type: in vivo; details: for overall effect in the Irwin test: all doses tested
Method: The method, which detects the first toxic dose, the active dose-range and the principal effects of a test substance on behavior and physiological function, follows that described by Irwin 1968 Psychopharmaco, 13:222-257,
3 treated groups were compared with the same control at any one time. All animals within a treatment group were observed simultaneously.
Behavioral modifications, physiological and neurotoxicity symptoms, pupil diameter and rectal temperature were recorded according to a standardized observation grid derived from that of Irwin, supra. The grid contains the following items: lethality*, convulsions*, tremor*, Straub*, sedation, excitation, abnormal gait* (rolling, tip-toe), jumps*, motor incoordination*, writhes*, piloerection*, stereotypies* (sniffing, chewing, head movements), head twitches*, scratching*, respiration*, aggressiveness*, fear, reactivity to touch, muscle tone, loss of righting reflex, ptosis, exopthalmos, loss of grasping, akinesia, catalepsy, loss of traction, loss of corneal reflex, analgesia, defecation, salivation, lacrimation, pupil diameter (Unit=1/45 mm) and rectal temperature.
Observations were performed 15, 30, 60, 120 and 180 minutes after administration of the test substance and also 24 hours later. The symptoms marked (*) were observed continuously from 0 to 15 minutes after administration. 5 mice were studied per group.
3-Butylphthalide (98.5% purity) was solubilized in 3% DMSO, 3% Tween 80 in saline (0.9% w/v NaCl) and injected into mice intraperitoneally.

[3] = target: T1, human dopamine transporter (hDAT) (Homo sapiens, UniProt Q01959); assay: Dopamine uptake inhibition in CHO-Ki/hDAT cells; type: cell-based; details: 50 nM [3H]Dopamine, 10 minutes
T1 construct: expressed in transfected cells; host or cells: CHO-Ki (CHO-K1)
Method: CHO-Ki/hDAT cells expressing the human dopamine transporter (hDAT) were plated before the assay. Cells (2×10^5/ml) were incubated with the compound of the formula I (3-n-butylphthalide) and/or vehicle in modified Tris-HEPES buffer pH 7.1 at 25° C. for 20 minutes before addition of 50 nM [^3H]Dopamine for 10 minutes. Specific signal was determined in the presence of 10 μM nomifensine. Cells were then solubilized with 1% […] lysis buffer. Reduction of [^3H]Dopamine uptake by 50 percent or more 50%) relative to vehicle controls indicates significant inhibitory activity. Compounds were screened at 10, 1, 0.1, 0.01 and 0.001 μM.

[4] = target: T2, Human recombinant norepinephrine transporter (Homo sapiens, UniProt P23975); assay: Norepinephrine uptake inhibition in MDCK cells; type: cell-based; details: 25 nM [3H]Norepinephrine, 10 minutes
T2 construct: expressed in transfected cells; host or cells: dog kidney MDCK cells
Method: Human recombinant norepinephrine transporter stably expressed dog kidney MDCK cells are plated one day before the assay. […] Cells in the well were then rinsed twice, solubilized with 1% SDS lysis buffer and the lysate was counted to determine [^3H]Norepinephrine uptake. Specific signal was determined in the presence of 10 μM desipramine. Reduction of [^3H]Norepinephrine uptake by 50 percent or more (≧50%) relative to vehicle controls indicates significant inhibitory activity. Compounds were screened at 10, 1, 0.1, 0.01 and 0.001 μM.

mice [5] = assay: Elevated plus maze test; type: in vivo, mouse; details: for OPEN ARM Number of entries, Mean ± sem / OPEN ARM Time spent (s), Mean ± sem: 5 h and 1 h before test; for OPEN ARM Number of entries, % change / OPEN ARM Time spent, % change: versus vehicle
Description: The method, which detects anxiolytic activity, follows that described by Handley et al, 1984 (Naunyn-Schm Arch Pharm 387: 1-5. Rodents avoid open spaces (the open arms of an elevated plus-maze). Anxiolytics increase exploratory activity in the […].
The maze consists of 4 arms of equal length and width (14×5 cm) arranged in the form of a plus sign (+). Two opposite arms are enclosed by 12 cm high walls (closed arms). The 2 other arms have no walls (open arms). The maze is raised 56 cm above the floor. A mouse is placed in the centre of the plus-maze and left to explore for 5 minutes. The number of entries into the open and closed arms and the time spent in the open arms is recorded. 10 mice were studied per group. The test was performed blind.
3-n-Butylphthalide was tested at doses of 10, 30, and 80 mg/kg body weight.

[6] = 100 mg/kg, 15 to 60 minutes after administration

T2 sequence (P23975 whole entry): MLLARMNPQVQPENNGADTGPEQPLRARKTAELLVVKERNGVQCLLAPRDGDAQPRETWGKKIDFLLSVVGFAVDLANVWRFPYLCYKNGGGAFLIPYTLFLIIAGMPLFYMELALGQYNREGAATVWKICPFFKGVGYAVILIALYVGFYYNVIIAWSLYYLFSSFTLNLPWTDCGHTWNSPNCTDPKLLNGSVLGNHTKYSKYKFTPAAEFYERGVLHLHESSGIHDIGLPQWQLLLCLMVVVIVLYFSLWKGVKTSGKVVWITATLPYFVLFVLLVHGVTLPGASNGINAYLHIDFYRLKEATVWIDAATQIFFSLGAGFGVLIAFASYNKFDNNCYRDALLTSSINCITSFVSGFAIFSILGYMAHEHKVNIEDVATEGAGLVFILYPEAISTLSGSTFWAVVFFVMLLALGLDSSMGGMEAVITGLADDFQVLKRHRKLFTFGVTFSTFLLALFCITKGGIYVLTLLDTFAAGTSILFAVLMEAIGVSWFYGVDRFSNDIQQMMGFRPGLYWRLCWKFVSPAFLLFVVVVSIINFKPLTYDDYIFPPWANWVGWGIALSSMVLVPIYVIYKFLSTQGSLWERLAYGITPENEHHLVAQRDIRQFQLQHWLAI
T1 sequence (Q01959 whole entry): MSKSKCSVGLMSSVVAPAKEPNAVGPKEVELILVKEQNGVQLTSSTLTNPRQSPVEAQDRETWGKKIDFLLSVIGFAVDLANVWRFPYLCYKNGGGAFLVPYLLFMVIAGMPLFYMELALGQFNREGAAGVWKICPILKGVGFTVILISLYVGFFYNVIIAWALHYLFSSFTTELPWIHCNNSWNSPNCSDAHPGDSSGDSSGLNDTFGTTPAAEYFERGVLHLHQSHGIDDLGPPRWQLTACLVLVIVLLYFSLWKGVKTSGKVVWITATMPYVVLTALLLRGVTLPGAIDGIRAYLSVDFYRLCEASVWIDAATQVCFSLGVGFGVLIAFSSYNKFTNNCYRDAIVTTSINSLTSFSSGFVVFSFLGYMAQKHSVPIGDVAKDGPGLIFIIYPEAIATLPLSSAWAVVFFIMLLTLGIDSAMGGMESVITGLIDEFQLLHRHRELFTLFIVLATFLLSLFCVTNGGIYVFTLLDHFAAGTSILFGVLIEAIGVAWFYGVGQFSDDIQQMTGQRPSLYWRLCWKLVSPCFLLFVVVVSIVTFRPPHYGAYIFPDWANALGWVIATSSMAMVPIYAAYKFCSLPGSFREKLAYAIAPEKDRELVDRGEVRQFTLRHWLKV

With CCC/C=C1\OC(=O)C2=C1CCC=C2 [Ligustilide] the “Duration of immobility [seconds] ± Standard Error of Mean” value (mice [1]; 10 mg/kg body weight) was 128.9 ± 15.1 s, the “reduction of the immobility time” value (mice [1]; 10 mg/kg, tendency) was “approx. 18%” and the “Duration of immobility [seconds] ± Standard Error of Mean” value (mice [1]; 30 mg/kg body weight) was 164.2 ± 15.5 s. The “reduction of the immobility time” value (mice [1]; higher doses (30 and 80 mg/kg)) was “not at the higher doses”, the sedation (mice [2]; 30 mg/kg, 30 minutes) was “slight sedation” and the muscle tone (mice [2]; 100 mg/kg, 15 to 60 minutes) was “decreased muscle tone”. The sedation (mice [2]; [6]) was “slight sedation”, the muscle tone (mice [2]; 200 mg/kg) was “decreased muscle tone” and the sedation (mice [2]; 200 mg/kg, 180 minutes) was “slight”. For the same compound, the sedation (mice [2]; 200 mg/kg, up to 120 minutes) was “slight-to-moderate”, the sedation (mice [2]; 300 mg/kg, 15 to 60 minutes) was “moderate” and the muscle tone (mice [2]; 300 mg/kg, 15 to 180 minutes) was “decreased muscle tone”. The sedation (mice [2]; 300 mg/kg, 120 to 180 minutes) was “slight” and the “overall effect in the Irwin test” value (mice [2]) was “dose dependent sedative and muscle relaxant effect”.
CCCC[C@@H]1OC(=O)c2ccccc21 (stereo in doubt) [3-n-butylphthalide, 3-n-Butylphthalide] was tested, and the “Duration of immobility [seconds] ± Standard Error of Mean” value (mice [1]; 10 mg/kg body weight) was 132.4 ± 9.3 s, the “Duration of immobility [seconds] ± Standard Error of Mean” value (mice [1]; 30 mg/kg body weight) was 128.0 ± 15.3 s and the “Duration of immobility [seconds] ± Standard Error of Mean” value (mice [1]; 80 mg/kg body weight) was 129.0 ± 15.4 s. The “reduction of the immobility time” value (mice [1]; between 10 and 80 mg/kg, tendency) was “approximately 18%”, the IC50 [3] was 22 µM and the IC50 [4] was 23.7 µM. For the same compound, the “OPEN ARM Number of entries, Mean ± sem” value (mice [5]; 10 mg/kg p.o. −24 h) was 3.5 ± 0.7, the “OPEN ARM Time spent (s), Mean ± sem” value (mice [5]; 10 mg/kg p.o. −24 h) was 24.3 ± 4.6 s and the “OPEN ARM Number of entries, % change” value (mice [5]; 10 mg/kg p.o.) was “+46%”. For the same compound, the “OPEN ARM Time spent, % change” value (mice [5]; 10 mg/kg p.o.) was “+34%”, the “OPEN ARM Number of entries, Mean ± sem” value (mice [5]; 30 mg/kg p.o. −24 h) was 3.1 ± 0.5 and the “OPEN ARM Time spent (s), Mean ± sem” value (mice [5]; 30 mg/kg p.o. −24 h) was 23.0 ± 3.8 s. For the same compound, the “OPEN ARM Number of entries, % change” value (mice [5]; 30 mg/kg p.o.) was “+29%”, the “OPEN ARM Time spent, % change” value (mice [5]; 30 mg/kg p.o.) was “+26%” and the “OPEN ARM Number of entries, Mean ± sem” value (mice [5]; 80 mg/kg p.o. −24 h) was 3.0 ± 0.8. The “OPEN ARM Time spent (s), Mean ± sem” value (mice [5]; 80 mg/kg p.o. −24 h) was 26.4 ± 5.3 s, the “OPEN ARM Number of entries, % change” value (mice [5]; 80 mg/kg p.o.) was “+25%” and the “OPEN ARM Time spent, % change” value (mice [5]; 80 mg/kg p.o.) was “+45%”. The anxiolytic activity (mice [5]; 10, 30 and 80 mg/kg) was “moderate anxiolytic activity”, the “entries into the closed arm” value (mice [5]; 10, 30 and 80 mg/kg) was “no effect” and the “number of entries and time spent in the open arm (overall)” value (mice [5]; 10, 30 and 80 mg/kg) was “trend to moderately increase”. For the same compound, the muscle tone (mice [2]; 100 mg/kg, 15 to 60 minutes) was “reduced muscle tone”, the sedation (mice [2]; [6]) was “slight sedative effects” and the muscle tone (mice [2]; 200 mg/kg) was “reduced muscle tone”. The fear (mice [2]; 200 mg/kg, after 60 minutes) was “reduced fear”, the sedation (mice [2]; 200 mg/kg, up to 120 minutes) was “moderate sedative effects” and the sedation (mice [2]; 300 mg/kg, 15 minutes and 30 minutes) was “marked sedation”. For the same compound, the sedation (mice [2]; 300 mg/kg, 60 minutes and 120 minutes) was “moderate sedation”, the fear (mice [2]; 300 mg/kg, 120 minutes) was “reduced” and the muscle tone (mice [2]; 300 mg/kg, 120 minutes) was “reduced”. The sedation (mice [2]; 300 mg/kg, 180 minutes) was “slight sedation”, the “overall effect in the Irwin test” value (mice [2]) was “dose dependent sedative and muscle relaxant effect” and the “overall effect in the Irwin test” value (mice [2]; listed as 3-butylphthalide) was “dose dependent sedative, fear reducing and muscle relaxant effect”.
